Assay [1] relates to cardiomyocytes. Put plainly: Intracellular calcium concentration (Fura-2 imaging). The assay is classed as cell-based, mouse. The note with it: compared to Iso, cardiomyocytes from WT and p47−/− mice, 100 nM. How it is done:
Intracellular calcium concentration was assessed by Fura-2 fluorescence ratio imaging using a microscopic digital imaging system (Photon Technology International), as described previously (Sharma e.g., 1995). Briefly, cultured primary cardiac myocytes were loaded with the Ca^2+-specific dye Fura-2 by incubating with 1 μM Fura-2AM (Molecular Probes) at 37° C. for 30 minutes. [Ca^2+]t values over the entire cell were calculated from the 340/380-nm ratio images of Fura-2 fluorescence captured before, during and after Iso (100 nM) or AngII (100 nM) stimulation.
In order to validate the connection between AngII and ROS in this experimental model, isolated cardiomyocytes from WT and p47^−/− mice were treated with 100 nM AngII and monitored production of ROS by Imaging DHE, a fluorescent reporter for superoxide and hydrogen peroxide (FIG. 7C). Wild-type cardiomyocytes were incubated with fura-2 AM, a cell-permeant calcium indicator to observe changes in intracellular Ca^2+ ([Ca^2+]i).

The test system of assay [2] is cardiomyocytes. Put plainly: Isolated cardiomyocyte TUNEL staining. The assay is classed as cell-based, mouse. The note with it: 100 nM, 24 hours. How it is done:
Myocyte isolations from neonatal mouse or rat pups were modified from previously described methods (Mohler e.g., 2007). To generate the primary cardiomyocyte cultures, hearts were dissected from P1 animals and placed in 1 mL of Ham's F-10. Atrial tissue was removed and the ventricular chambers were rinsed to remove any remaining blood. Hearts were transferred into 1.5 mL of 0.05% Trypsin, 200 μM EDTA in Ham's F-10 medium (Mediatech). Hearts were minced into approximately 20 small pieces using forceps and small scissors and incubated in the Trypsin/EDTA medium at 37° C. Following 15 min, the heart pieces were mixed by a Pasteur pipette and incubated for an additional 15 min. A mixture of 200 μL of soybean trypsin inhibitor (2 mg/mL; Worthington) and 200 μL of collagenase (0.2 mg/mL; 1980 units/mg; Sigma) was incubated with the cells for 35-50 min at 37° C. The cell suspension was pelleted, resuspended in “Complete Medium” (40% DMEM, 40% Ham's F-10, 20% FCS), and plated on plastic dishes. Following five hours, the non-adhered cells (cardiomyocytes) were aspirated from the plate, pelleted, resuspended in Complete Medium, and plated on Mattek tissue culture plates (fibronectin-coated; Roche). Cardiomyocytes were washed with Ham's F-10 and Medium was replaced with “Defined Medium” to prevent the growth of fibroblasts. 100× Defined Medium consists of 100 μg/mL insulin, 500 μg/mL transferrin, 100 nM LiCl, 100 nM NaSeO4, and 10 nM thyroxine. To ensure that pure populations of cardiomyocytes were obtained, cultures were immunolabeled with alpha-actinin Ig (cardiomyocyte-specific marker). Only cultures with >90% cardiomyocytes were used in experiments. (See FIG. 12.) Lentiviral treatments (shRNA, rescue constructs) and apoptosis inducing agents (Iso, AngII) were used for 24 hours. Cells were fixed in 4% paraformaldehyde, permeabilized in 0.1% Triton X-100 and sodium citrate, and stained using In Situ cell death detection kits, TMR Red (Roche). TUNEL stain assays were interpreted as previously described (Yang e.g., 2006). Nuclei were co-stained with DAPI. Investigators were blinded to the genetic identity and treatment of the mice in all studies.
Cardiomyocytes from mice that express an inhibitory peptide against CaMKII (AC3-I, Zhang e.g., 2005) were treated with 100 nM AngII for 24 hours in parallel with isolated cardiomyocytes from WT and p47^−/− mice. […] Activity assays for caspase-3, a downstream target enzyme in the CaMKII apoptotic signaling pathway in heart, recapitulated the results from the TUNEL assay (FIG. 7A).

On to “angiotensin II (DRVYIHPF; Angiotensin-2; UniProt P01019 25-32, looked up) [AngII, oxidant stimulating agent in cardiac tissue]”, for which the “Increases in [Ca2+]i” value in the assay with cardiomyocytes [1] is reported as “significantly less”. Further, the “Percent of TUNEL positive nuclei” value is “significant increase” in the assay on cardiomyocytes [2] (WT cells) and “no significant effect” in the assay on cardiomyocytes [2] (p47−/− or AC3-I cardiomyocytes).
